How the values were obtained:
Fadu = assay: MTS cytotoxicity, Fadu; assay type: cell-based; conditions: Homo sapiens
Description: (§1) Human cancer cell lines were cultured in basic medium (10% fetal bovine serum (FBS)+1% double antibody solution) (Biological Industries) at 37°C in a 5% CO2 incubator. Effects of CTXs on cell proliferation and viability were measured by an MTS (Promega Corporation) assay. Absorbance values at 490 nm were measured using a microplate reader (Thermo Scientific, Varioskan Flash) ([22]).

DU145 cells = assay: Cell cycle arrest (PI, flow cytometry); assay type: cell-based, human; conditions: 24 h
Description: Cells were incubated with drugs for 24 h. Fixed cells were incubated with RNase A and stained with propidium iodide (PI). DNA content was determined in a flow cytometer (BD FACS CaliburTM Flow Cytometer, USA) ([23]).

[1] = Plasma pharmacokinetics (non-compartmental); conditions: for AUC(0-t) / Cmax / Vd / clearance: both, SD, rat, iv, 6 umol/kg
Description: (§2) Male and female SD rats (200–220 g) received intravenous injections of CTX or CTX-DTPA (6 μmol/kg). CTX was dissolved in 2.5% Tween 80/2.5% EtOH/saline, while CTX-DTPA used saline alone. Blood samples were collected at 5 min to 24 h post-dose. Tissues (heart, liver, spleen, lung, kidney, thymus) and excreta were collected at 15 min, 2 h, 4 h, and 12 h. Plasma and tissue samples were processed by liquid-liquid extraction with n-butanol and analyzed via LC-MS/MS (Agilent Poroshell 120 EC-C18 column; 0.05% formic acid/acetonitrile gradient). Pharmacokinetic parameters were calculated using DAS 2.0 via non-compartmental analysis.

PC-3 = assay: MTS cytotoxicity, PC-3; assay type: cell-based; conditions: Homo sapiens; PC-3, MTS
Description: as §1

Excretion (urine, feces) = assay type: in vivo; conditions: SD rats, 6 μmol/kg iv
Description: Male and female SD rats (200–220 g) received intravenous injections of CTX or CTX-DTPA (6 μmol/kg). […] Blood samples were collected at 5 min to 24 h post-dose. Tissues (heart, liver, spleen, lung, kidney, thymus) and excreta were collected at 15 min, 2 h, 4 h, and 12 h. Plasma and tissue samples were processed by liquid-liquid extraction with n-butanol and analyzed via LC-MS/MS (Agilent Poroshell 120 EC-C18 column; 0.05% formic acid/acetonitrile gradient). Pharmacokinetic parameters were calculated using DAS 2.0 via non-compartmental analysis.

H520 = assay: MTS cytotoxicity, H520; assay type: cell-based; conditions: Homo sapiens, NCI-H520
Description: as §1

SK-OV-3 = assay: MTS cytotoxicity, SK-OV-3; assay type: cell-based; conditions: Homo sapiens; SK-OV-3, MTS
Description: as §1

MCF-7 = assay: MTS cytotoxicity, MCF-7; assay type: cell-based; conditions: Homo sapiens, MCF7; MCF-7, MTS
Description: as §1

HT-29 = assay: MTS cytotoxicity, HT-29; assay type: cell-based; conditions: Homo sapiens; HT-29, MTS
Description: as §1

H358 = assay: MTS cytotoxicity, H358; assay type: cell-based; conditions: Homo sapiens, NCI-H358
Description: as §1

LN229 = assay: MTS cytotoxicity, LN229; assay type: cell-based; conditions: Homo sapiens, LN-229
Description: as §1

[2] = tested on: DU145 prostate cancer model; assay: DU145 prostate cancer xenograft, tumor volume; assay type: in vivo, BALB/c nude mice; conditions: 3 μmol/kg tail vein, three times at 3-day intervals, control 500 ± 45 mm³
Description: All animal experiments were conducted in accordance with protocols approved by the Institutional Animal Care and Use Committee of Peking Union Medical College. Male BALB/c nude mice (6–8 weeks old) and female KM mice (6–8 weeks old) were purchased from Charles River Laboratories (Beijing, China) and maintained under specific pathogen-free conditions.
DU145 Prostate cancer model: DU145 cells (3×10^6 cells/mouse) were subcutaneously inoculated into the right flank of BALB/c nude mic. When tumors reached approximately 100 mm³, mice were randomly divided into four treatment groups (n=6/group): (a) Vehicle control; (b) CTX (3 μmol/kg); (c) CTX-TTHA (3 μmol/kg); (d) CTX-DTPA (3 μmol/kg). Treatments were administered via tail vein injection three times at 3-day intervals. Major organs were collected for histopathological examination after the final administration.

Tissue distribution = conditions: for concentration at 15 min / concentration at 2 h / concentration at 4 h / concentration at 12 h: both, SD, rat, iv, 6 μmol/kg
Description: as §2

DU145 = assay: MTS cytotoxicity, DU145; assay type: cell-based; conditions: Homo sapiens, DU-145
Description: as §1

Hemolysis test = assay type: cell-based, SD rats; conditions: SD, rat, rat red blood cells, 2% (v/v) suspension, 37 °C, 1.5 h
Description: The hemolytic potential of CTX formulations was evaluated using rat red blood cells (RBCs). Briefly, whole blood was collected from the abdominal aorta of anesthetized SD rats into ACD anticoagulant (blood:ACD = 1:4, v/v). The blood was diluted with normal saline (4:5, v/v) and centrifuged at 450 g for 10 min. The RBC pellet was washed three times with normal saline until the supernatant was clear. The washed RBCs were then resuspended in normal saline to prepare a 2% (v/v) suspension.
For the assay, 500 μL of the 2% RBC suspension was mixed with an equal volume of serially diluted drugs or controls in 1.5 mL tubes. The controls included: Negative control (0% hemolysis): normal saline. Positive control (100% hemolysis): distilled water. Solvent control: the vehicle for unmodified CTX (2.5% Tween 80 + 2.5% anhydrous ethanol + 95% normal saline). The mixtures were incubated at 37 °C for 1.5 h and then centrifuged at 450 g for 5 min. Subsequently, 150 μL of the supernatant from each tube was transferred to a 96-well plate, and the absorbance at 545 nm (OD545) was measured using a microplate reader. The percentage of hemolysis was calculated using the following formula: Hemolysis (%) = [(ODsample - ODnegative control)/(ODpositive control - ODnegative control)] × 100.

L-02 = assay: MTS cytotoxicity, L-02 (non-tumor); assay type: cell-based; conditions: Homo sapiens, L02, L-02 non-tumor cell line
Description: as §1

3T3 = assay: MTS cytotoxicity, 3T3 (non-tumor); assay type: cell-based; conditions: Mus musculus, NIH3T3, 3T3 non-tumor cell line
[3] = SD rats, 6 μmol/kg iv, plasma, dosed compound itself

CO[C@H]1C(=O)[C@]2(C)[C@@H](OC)C[C@H]3OC[C@@]3(OC(C)=O)[C@H]2[C@H](OC(=O)c2ccccc2)[C@]2(O)C[C@H](OC(=O)[C@H](O)[C@@H](NC(=O)OC(C)(C)C)c3ccccc3)C(C)=C1C2(C)C [CTX, Cabazitaxel]
IC50 (Fadu): 1.6 ± 0.4 nM
cells arrested in G2/M (DU145 cells; DU145, 1 nM): 16.5 ± 0.7%
cells arrested in G2/M (DU145 cells; DU145, 25 nM): 65.5 ± 19.9%
MRT0-t [1, 3]: 0.67 ± 0.09 H
t1/2 [1, 3]: 1.27 ± 0.09 H
AUC(0-t) ([1]; plasma): 1680 ± 194 ng·h/mL
Cmax ([1]; plasma): 2930 ± 990 ng/mL
Vd ([1]; plasma): 5.53 ± 0.81 L/kg
clearance ([1]; plasma): 50.2 mL/min/kg
IC50 (PC-3): 5.2 ± 1.7 nM
total excretion of administered dose (Excretion (urine, feces); in 24 h): < 1 % of dose
IC50 (H520): 1.5 ± 0.7 nM
IC50 (SK-OV-3): 4.4 ± 0.9 nM
IC50 (MCF-7): 5.3 ± 1.9 nM
IC50 (HT-29): 7.4 ± 3.4 nM
IC50 (H358): 1.2 ± 0.6 nM
IC50 (LN229): 8.5 ± 2.3 nM
final tumor volume [2]: 254 ± 35 mm³
concentration at 15 min (Tissue distribution; heart): 43.2 ± 12.9 ng/g
concentration at 2 h (Tissue distribution; heart): 24.6 ± 2.33 ng/g
concentration at 4 h (Tissue distribution; heart): 16 ± 1.91 ng/g
concentration at 12 h (Tissue distribution; heart): 12.6 ± 2.69 ng/g
concentration at 15 min (Tissue distribution; kidney): 550 ± 12 ng/g
concentration at 2 h (Tissue distribution; kidney): 313 ± 47.5 ng/g
concentration at 4 h (Tissue distribution; kidney): 308 ± 41.5 ng/g
concentration at 12 h (Tissue distribution; kidney): 218 ± 15.9 ng/g
concentration at 15 min (Tissue distribution; liver): 149 ± 7.27 ng/g
concentration at 2 h (Tissue distribution; liver): 78.7 ± 10.6 ng/g
concentration at 4 h (Tissue distribution; liver): 48.7 ± 11.5 ng/g
concentration at 12 h (Tissue distribution; liver): 29.3 ± 11.5 ng/g
concentration at 15 min (Tissue distribution; lung): 133 ± 15 ng/g
concentration at 2 h (Tissue distribution; lung): 117 ± 4.61 ng/g
concentration at 4 h (Tissue distribution; lung): 106.8 ± 0.42 ng/g
concentration at 12 h (Tissue distribution; lung): 79 ± 30.9 ng/g
concentration at 15 min (Tissue distribution; spleen): 250 ± 38.3 ng/g
concentration at 2 h (Tissue distribution; spleen): 160 ± 2.24 ng/g
concentration at 4 h (Tissue distribution; spleen): 113 ± 21 ng/g
concentration at 12 h (Tissue distribution; spleen): 54 ± 8.47 ng/g
concentration at 15 min (Tissue distribution; thymus): 87.8 ± 23.5 ng/g
concentration at 2 h (Tissue distribution; thymus): 129 ± 50 ng/g
concentration at 4 h (Tissue distribution; thymus): 110 ± 41.8 ng/g
concentration at 12 h (Tissue distribution; thymus): 67.2 ± 4.15 ng/g
IC50 (DU145): 6.1 ± 2.4 nM
hemolysis at 1.5 h, 4.7 nmol/mL (Hemolysis test; 4.7 nmol/mL, read-out: hemolysis rate): 11 ± 3.2%
hemolysis at 1.5 h, 75 nmol/mL (Hemolysis test; 75 nmol/mL, read-out: hemolysis rate): 73.4 ± 5.8%
IC50 (L-02): 7.8 ± 1.5 nM
IC50 (3T3): 8.7 ± 3.2 nM

COC1C(=O)C2(C)C(OC)CC3OCC3(OC(C)=O)C2C(OC(=O)c2ccccc2)C2(O)CC(OC(=O)C(OC(=O)CN(CCN(CCN(CC(=O)O)CC(=O)O)CC(=O)O)CC(=O)O)C(NC(=O)OC(C)(C)C)c3ccccc3)C(C)=C1C2(C)C (stereo not shown) [CTX-DTPA]
IC50 (Fadu): 1.9 ± 0.6 nM
cells arrested in G2/M (DU145 cells; DU145, 1 nM): 16.4 ± 1.0%
cells arrested in G2/M (DU145 cells; DU145, 25 nM): 58.9 ± 16.1%
elimination half-life relative to CTX ([1]; SD rats, 6 μmol/kg iv, longer than CTX): 5.1 fold
MRT0-t [1, 3]: 1.04 ± 0.57 H
AUC(0-t) ([1]; in vivo): 1330 ± 777 ng·h/mL
Cmax ([1]; in vivo): 4360 ± 2880 ng/mL
Vd ([1]; in vivo): 69.9 L/kg
clearance ([1]; in vivo): 126 mL/min/kg
IC50 (PC-3): 4.1 ± 0.7 nM
urinary excretion of intact CTX-DTPA (Excretion (urine, feces); cumulative): 2191.14 ± 853.66 µg/kg
renal excretion (Excretion (urine, feces); within 24 hours): 39.8 ± 12.7%
IC50 (H520): 2 ± 1.3 nM
IC50 (SK-OV-3): 5.4 ± 1.3 nM
IC50 (MCF-7): 6.8 ± 2.4 nM
IC50 (HT-29): 6.7 ± 2.9 nM
IC50 (H358): 1.6 ± 0.7 nM
IC50 (LN229): 5.8 ± 2.2 nM
final tumor volume [2]: 244 ± 32 mm³
concentration at 15 min (Tissue distribution; in vivo, tissue concentration, spleen, 15 min, SD rats 6 μmol/kg iv, dosed compound): 0.39 ± 0.04 ng/g
concentration at 15 min (Tissue distribution; in vivo, tissue concentration, thymus, 15 min, SD rats 6 μmol/kg iv, dosed compound): 0.62 ± 0.05 ng/g
tissue concentration (Tissue distribution; heart, 15 min, SD rats 6 μmol/kg iv, dosed compound): * 0.27 ± 0.04 μg/kg
tissue concentration (Tissue distribution; heart, 2 h, SD rats 6 μmol/kg iv, dosed compound): *** 0.07 ± 0.03 μg/kg
tissue concentration (Tissue distribution; heart, 4 h, SD rats 6 μmol/kg iv, dosed compound): *** 0.04 ± 0.00 μg/kg
tissue concentration (Tissue distribution; heart, 12 h, SD rats 6 μmol/kg iv, dosed compound): ** 0.06 ± 0.03 μg/kg
tissue concentration (Tissue distribution; kidney, 15 min, SD rats 6 μmol/kg iv, dosed compound): **** 41.08 ± 9.73 μg/kg
tissue concentration (Tissue distribution; kidney, 2 h, SD rats 6 μmol/kg iv, dosed compound): ** 4.96 ± 1.67 μg/kg
tissue concentration (Tissue distribution; kidney, 4 h, SD rats 6 μmol/kg iv, dosed compound): *** 1.55 ± 0.31 μg/kg
tissue concentration (Tissue distribution; kidney, 12 h, SD rats 6 μmol/kg iv, dosed compound): **** 1.36 ± 0.84 μg/kg
tissue concentration (Tissue distribution; liver, 15 min, SD rats 6 μmol/kg iv, dosed compound): *** 37.74 ± 16.89 μg/kg
tissue concentration (Tissue distribution; liver, 2 h, SD rats 6 μmol/kg iv, dosed compound): ** 7.21 ± 1.30 μg/kg
tissue concentration (Tissue distribution; liver, 4 h, SD rats 6 μmol/kg iv, dosed compound): * 6.74 ± 5.04 μg/kg
tissue concentration (Tissue distribution; liver, 12 h, SD rats 6 μmol/kg iv, dosed compound): * 0.65 ± 0.42 μg/kg
tissue concentration (Tissue distribution; lung, 15 min, SD rats 6 μmol/kg iv, dosed compound): *** 2.36 ± 1.29 μg/kg
tissue concentration (Tissue distribution; lung, 2 h, SD rats 6 μmol/kg iv, dosed compound): **** 0.48 ± 0.50 μg/kg
tissue concentration (Tissue distribution; lung, 4 h, SD rats 6 μmol/kg iv, dosed compound): **** 0.13 ± 0.01 μg/kg
tissue concentration (Tissue distribution; lung, 12 h, SD rats 6 μmol/kg iv, dosed compound): * 1.10 ± 0.45 μg/kg
tissue concentration (Tissue distribution; spleen, 15 min, SD rats 6 μmol/kg iv, dosed compound): *** 0.39 ± 0.04 μg/kg
tissue concentration (Tissue distribution; spleen, 2 h, SD rats 6 μmol/kg iv, dosed compound): **** 0.09 ± 0.03 μg/kg
tissue concentration (Tissue distribution; spleen, 4 h, SD rats 6 μmol/kg iv, dosed compound): ** 0.05 ± 0.02 μg/kg
tissue concentration (Tissue distribution; spleen, 12 h, SD rats 6 μmol/kg iv, dosed compound): ** 0.05 ± 0.03 μg/kg
tissue concentration (Tissue distribution; thymus, 15 min, SD rats 6 μmol/kg iv, dosed compound): ** 0.62 ± 0.05 μg/kg
tissue concentration (Tissue distribution; thymus, 2 h, SD rats 6 μmol/kg iv, dosed compound): * 0.10 ± 0.07 μg/kg
tissue concentration (Tissue distribution; thymus, 4 h, SD rats 6 μmol/kg iv, dosed compound): * 0.05 ± 0.01 μg/kg
tissue concentration (Tissue distribution; thymus, 12 h, SD rats 6 μmol/kg iv, dosed compound): **** 0.06 ± 0.04 μg/kg
IC50 (DU145): 5.1 ± 1.4 nM
hemolysis at 1.5 h, 300 nmol/mL (Hemolysis test; 300 nmol/mL (maximum tested), read-out: hemolysis rate): 12.1 ± 9.2%
hemolysis at 1.5 h (Hemolysis test; concentrations up to 150 nmol/mL): < 2%
IC50 (L-02): 8.8 ± 3.6 nM
IC50 (3T3): 8.3 ± 2.7 nM

Source: article PMC12689286, “Enhanced therapeutics of cabazitaxel via polycarboxylate conjugation: improved solubility, safety, and antitumor efficacy” (Frontiers in Immunology, 2025)
